Experimental data published in patent US20190192060A1, “DEVICE AND METHOD FOR BLOOD VOLUME MEASUREMENT” (Oregon Health & Science University, priority 2017, published 2019).

How the values were obtained:
[1] = cited from earlier work
[2] = in vivo indicator dilution and elimination measured with intravenous optical fiber probe; conditions: healthy adult rhesus macaques, intravenous injection, reflectance in cephalic vein
[3] = cited from earlier work; remark: listed apart in the source

SMILES: CC1(C)C(/C=C/C=C/C=C/C=C2\N(CCCCS(=O)(=O)O)c3ccc4ccccc4c3C2(C)C)=[N+](CCCCS(=O)(=O)[O-])c2ccc3ccccc3c21 [ICG, indocyanine green]
- placental transfer ([1]; in vivo): does not cross the placenta
- harm to the fetus ([1]; used in many pregnant women): without any reports of harm to the fetus
- time until blood volume indicator values returned to baseline (non-detectable) [2]: approximately 10 minutes
- time to elimination by the liver ([3]; after mixing in the circulating compartment): ≤ 15 min
- route of excretion ([3]; in vivo): excreted unchanged in the bile
